This note sets out measurements from ChEMBL document CHEMBL5465560, “Selectivity Literature for EUbOPEN Chemogenomic Library” (2024).

Assay [1] has as its target Tyrosine-protein kinase Lyn (Homo sapiens, UniProt P07948). As to conditions: at 10 µM.
Assay [2] addresses Serine/threonine-protein kinase MRCK alpha (Homo sapiens) (UniProt Q5VT25). Kind of assay: Selectivity interaction (Kinase panel (DSF assay)) EUB0001558a CDC42BPA. (Differential scanning fluorimetry follows unfolding on heating by fluorescence.)
In assay [3] the target is T1, Serine/threonine-protein kinase LATS1 (Homo sapiens) (UniProt O95835).
T1 sequence (whole entry): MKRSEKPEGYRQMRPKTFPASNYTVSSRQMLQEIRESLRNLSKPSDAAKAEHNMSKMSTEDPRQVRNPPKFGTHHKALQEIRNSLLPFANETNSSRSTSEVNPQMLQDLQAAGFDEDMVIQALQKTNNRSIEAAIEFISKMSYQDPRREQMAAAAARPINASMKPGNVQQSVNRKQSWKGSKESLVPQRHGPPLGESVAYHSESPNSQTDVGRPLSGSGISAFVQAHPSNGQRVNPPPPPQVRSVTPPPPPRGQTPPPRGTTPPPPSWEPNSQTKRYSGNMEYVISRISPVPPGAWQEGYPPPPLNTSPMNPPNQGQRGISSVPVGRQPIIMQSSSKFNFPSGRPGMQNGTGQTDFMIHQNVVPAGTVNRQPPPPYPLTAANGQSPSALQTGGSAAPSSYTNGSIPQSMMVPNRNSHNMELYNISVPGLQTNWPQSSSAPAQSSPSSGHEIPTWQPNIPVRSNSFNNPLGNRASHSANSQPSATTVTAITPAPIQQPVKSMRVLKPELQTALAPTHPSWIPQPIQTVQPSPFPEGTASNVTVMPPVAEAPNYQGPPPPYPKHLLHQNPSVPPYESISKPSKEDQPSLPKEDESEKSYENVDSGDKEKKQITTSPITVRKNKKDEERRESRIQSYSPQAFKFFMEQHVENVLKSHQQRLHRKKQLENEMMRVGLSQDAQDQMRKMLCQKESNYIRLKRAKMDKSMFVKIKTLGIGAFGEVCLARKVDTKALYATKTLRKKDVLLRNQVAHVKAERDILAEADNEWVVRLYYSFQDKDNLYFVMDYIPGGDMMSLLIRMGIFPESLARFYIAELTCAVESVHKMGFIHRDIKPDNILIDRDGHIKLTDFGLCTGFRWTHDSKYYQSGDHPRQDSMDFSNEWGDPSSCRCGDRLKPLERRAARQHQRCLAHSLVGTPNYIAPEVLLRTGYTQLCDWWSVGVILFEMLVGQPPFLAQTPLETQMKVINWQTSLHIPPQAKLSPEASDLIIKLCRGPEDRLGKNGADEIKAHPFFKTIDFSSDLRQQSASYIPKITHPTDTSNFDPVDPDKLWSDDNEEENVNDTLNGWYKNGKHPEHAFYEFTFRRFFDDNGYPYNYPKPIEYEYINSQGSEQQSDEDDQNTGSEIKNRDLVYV
Description: Selectivity interaction (Ambit KINOMEscan and KiNATiv profiling in Jurkat cells) EUB0000090b LATS1. As to conditions: at 1 µM. It counts as cell-based.

Assay [4] has as its target Serine/threonine-protein kinase 38-like (Homo sapiens) (UniProt Q9Y2H1). Kind of assay: Selectivity interaction (KinomeScan (DiscoverX)) EUB0001079a STK38L. As to conditions: at 1 µM.
Assay [5] concerns the target Mitogen-activated protein kinase 11 (Homo sapiens) (UniProt Q15759). Description: Selectivity interaction (Kinase panel (Invitrogen)) EUB0000639a MAPK11. As to conditions: at 200 nM.
Assay [6] has as its target Ribosomal protein S6 kinase alpha-3 (Homo sapiens, UniProt P51812). Kind of assay: Selectivity interaction (ActivX KiNativ screen (kinase selectivity in THP-1 cell lysates)) EUB0000639a RPS6KA3. It counts as subcellular. The note with it: lysate, at 0.04 µM.
Assay [7] concerns the target T2, Aurora kinase A (Homo sapiens) (UniProt O14965).
T2 sequence (whole entry): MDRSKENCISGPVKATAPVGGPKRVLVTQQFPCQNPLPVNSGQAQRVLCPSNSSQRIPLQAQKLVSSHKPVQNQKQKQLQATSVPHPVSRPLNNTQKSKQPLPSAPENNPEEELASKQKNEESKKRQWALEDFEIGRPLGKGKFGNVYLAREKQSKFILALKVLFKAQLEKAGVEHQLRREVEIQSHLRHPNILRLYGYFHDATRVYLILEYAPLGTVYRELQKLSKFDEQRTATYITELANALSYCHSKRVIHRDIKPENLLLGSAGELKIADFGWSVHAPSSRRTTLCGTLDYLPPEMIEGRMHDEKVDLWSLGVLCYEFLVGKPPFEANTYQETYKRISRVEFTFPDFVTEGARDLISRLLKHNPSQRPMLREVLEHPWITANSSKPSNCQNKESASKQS
Kind of assay: Selectivity interaction (ActivX KiNativ screen (kinase selectivity in THP-1 cell lysates)) EUB0000639a STK6. It counts as subcellular. As to conditions: lysate, at 0.04 µM.

Assay [8] addresses Serine/threonine-protein kinase Nek6 (Homo sapiens) (UniProt Q9HC98). Description: Selectivity interaction (KinomeScan (DiscoverX)) EUB0001619a NEK6. As to conditions: at 1 µM.
The target of assay [9] is T3, Inhibitor of nuclear factor kappa-B kinase subunit beta (Homo sapiens) (UniProt O14920).
T3 sequence (whole entry): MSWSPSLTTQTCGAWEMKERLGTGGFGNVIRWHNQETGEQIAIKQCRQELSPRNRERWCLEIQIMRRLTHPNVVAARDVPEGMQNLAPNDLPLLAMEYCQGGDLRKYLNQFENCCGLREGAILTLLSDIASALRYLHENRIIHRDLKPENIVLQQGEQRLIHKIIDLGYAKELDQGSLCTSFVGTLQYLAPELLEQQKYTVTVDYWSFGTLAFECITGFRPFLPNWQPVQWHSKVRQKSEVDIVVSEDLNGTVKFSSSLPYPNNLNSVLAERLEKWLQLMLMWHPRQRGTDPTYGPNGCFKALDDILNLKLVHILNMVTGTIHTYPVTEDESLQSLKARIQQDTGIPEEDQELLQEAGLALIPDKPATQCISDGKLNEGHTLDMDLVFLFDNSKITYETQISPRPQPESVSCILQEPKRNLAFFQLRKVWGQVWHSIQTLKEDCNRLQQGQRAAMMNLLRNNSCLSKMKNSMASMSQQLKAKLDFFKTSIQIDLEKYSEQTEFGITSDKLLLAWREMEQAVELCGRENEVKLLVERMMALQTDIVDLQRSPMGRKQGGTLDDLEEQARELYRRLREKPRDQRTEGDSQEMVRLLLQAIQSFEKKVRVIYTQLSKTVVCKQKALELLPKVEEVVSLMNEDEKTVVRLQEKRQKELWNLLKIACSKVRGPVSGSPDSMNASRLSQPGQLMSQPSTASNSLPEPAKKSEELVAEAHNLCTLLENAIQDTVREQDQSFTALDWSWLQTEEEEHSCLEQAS
Kind of assay: Selectivity interaction (ActivX KiNativ screen (ex vivo kinase selectivity in human PBMCs)) EUB0001619a IKBKB. It is filed as cell-based. As to conditions: PBMC, at 1 µM.

Serine/threonine-protein kinase MRCK alpha (Homo sapiens), sequence (Q5VT25 whole entry): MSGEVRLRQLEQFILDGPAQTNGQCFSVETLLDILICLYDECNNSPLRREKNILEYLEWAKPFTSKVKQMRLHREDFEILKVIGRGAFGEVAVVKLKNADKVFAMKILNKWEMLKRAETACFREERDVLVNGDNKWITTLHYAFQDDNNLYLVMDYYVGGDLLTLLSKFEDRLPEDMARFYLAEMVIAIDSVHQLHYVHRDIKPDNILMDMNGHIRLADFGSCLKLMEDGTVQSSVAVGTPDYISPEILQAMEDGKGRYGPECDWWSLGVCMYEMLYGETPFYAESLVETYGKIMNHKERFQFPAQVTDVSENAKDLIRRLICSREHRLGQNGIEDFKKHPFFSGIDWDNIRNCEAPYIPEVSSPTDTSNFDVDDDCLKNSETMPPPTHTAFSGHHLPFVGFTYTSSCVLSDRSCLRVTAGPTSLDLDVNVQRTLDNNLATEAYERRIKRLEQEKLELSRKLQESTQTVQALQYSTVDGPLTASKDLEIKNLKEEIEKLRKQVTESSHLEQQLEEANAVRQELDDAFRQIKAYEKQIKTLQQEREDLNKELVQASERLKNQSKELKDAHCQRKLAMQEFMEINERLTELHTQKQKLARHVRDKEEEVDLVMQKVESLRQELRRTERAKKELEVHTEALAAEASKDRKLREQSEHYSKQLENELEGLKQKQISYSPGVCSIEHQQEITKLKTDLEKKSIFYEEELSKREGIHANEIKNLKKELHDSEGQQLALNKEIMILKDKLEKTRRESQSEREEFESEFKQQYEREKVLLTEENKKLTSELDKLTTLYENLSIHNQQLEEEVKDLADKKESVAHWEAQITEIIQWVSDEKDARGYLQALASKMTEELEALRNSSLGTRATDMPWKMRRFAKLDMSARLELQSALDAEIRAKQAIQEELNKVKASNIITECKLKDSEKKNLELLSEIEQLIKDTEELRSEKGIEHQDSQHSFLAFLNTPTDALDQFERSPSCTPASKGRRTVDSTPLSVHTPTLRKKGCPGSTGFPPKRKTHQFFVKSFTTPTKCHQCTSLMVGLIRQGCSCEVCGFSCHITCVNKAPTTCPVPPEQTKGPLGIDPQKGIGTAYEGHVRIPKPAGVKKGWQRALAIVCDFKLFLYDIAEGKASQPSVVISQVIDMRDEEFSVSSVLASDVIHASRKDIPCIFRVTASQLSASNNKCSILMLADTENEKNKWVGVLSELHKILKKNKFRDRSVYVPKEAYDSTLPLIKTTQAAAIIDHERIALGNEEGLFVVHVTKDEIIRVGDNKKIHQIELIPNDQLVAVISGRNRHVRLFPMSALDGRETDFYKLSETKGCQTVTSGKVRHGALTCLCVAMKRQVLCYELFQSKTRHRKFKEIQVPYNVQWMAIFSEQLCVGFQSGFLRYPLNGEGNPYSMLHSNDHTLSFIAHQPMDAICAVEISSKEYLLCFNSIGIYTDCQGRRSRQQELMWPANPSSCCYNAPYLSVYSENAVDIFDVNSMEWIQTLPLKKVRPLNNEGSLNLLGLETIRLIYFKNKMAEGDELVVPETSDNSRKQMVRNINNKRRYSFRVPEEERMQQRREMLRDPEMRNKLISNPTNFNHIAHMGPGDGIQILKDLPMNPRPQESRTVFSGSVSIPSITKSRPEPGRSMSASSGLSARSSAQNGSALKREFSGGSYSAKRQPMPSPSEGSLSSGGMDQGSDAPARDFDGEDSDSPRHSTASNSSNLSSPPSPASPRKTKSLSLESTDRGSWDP
Mitogen-activated protein kinase 11 (Homo sapiens), sequence (Q15759 whole entry): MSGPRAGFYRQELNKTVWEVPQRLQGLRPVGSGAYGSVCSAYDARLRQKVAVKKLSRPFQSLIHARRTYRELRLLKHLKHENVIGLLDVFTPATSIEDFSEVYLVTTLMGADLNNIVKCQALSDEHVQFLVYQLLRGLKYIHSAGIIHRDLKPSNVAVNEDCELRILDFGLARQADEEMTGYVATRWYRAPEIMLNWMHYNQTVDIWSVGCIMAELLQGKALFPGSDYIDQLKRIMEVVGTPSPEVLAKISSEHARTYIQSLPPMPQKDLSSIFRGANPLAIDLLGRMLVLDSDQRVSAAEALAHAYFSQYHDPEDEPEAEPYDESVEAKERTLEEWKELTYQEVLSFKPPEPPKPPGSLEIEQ
Serine/threonine-protein kinase Nek6 (Homo sapiens), sequence (Q9HC98 whole entry): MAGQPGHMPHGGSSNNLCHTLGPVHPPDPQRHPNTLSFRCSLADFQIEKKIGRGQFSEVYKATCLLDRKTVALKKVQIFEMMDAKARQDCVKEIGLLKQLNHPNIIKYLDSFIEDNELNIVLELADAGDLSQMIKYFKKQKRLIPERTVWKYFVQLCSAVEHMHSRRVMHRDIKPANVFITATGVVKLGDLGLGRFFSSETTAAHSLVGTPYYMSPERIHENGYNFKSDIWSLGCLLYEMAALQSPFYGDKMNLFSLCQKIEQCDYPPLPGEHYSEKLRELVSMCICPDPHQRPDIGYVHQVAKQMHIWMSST
Tyrosine-protein kinase Lyn, sequence (P07948 2-512 limits assumed): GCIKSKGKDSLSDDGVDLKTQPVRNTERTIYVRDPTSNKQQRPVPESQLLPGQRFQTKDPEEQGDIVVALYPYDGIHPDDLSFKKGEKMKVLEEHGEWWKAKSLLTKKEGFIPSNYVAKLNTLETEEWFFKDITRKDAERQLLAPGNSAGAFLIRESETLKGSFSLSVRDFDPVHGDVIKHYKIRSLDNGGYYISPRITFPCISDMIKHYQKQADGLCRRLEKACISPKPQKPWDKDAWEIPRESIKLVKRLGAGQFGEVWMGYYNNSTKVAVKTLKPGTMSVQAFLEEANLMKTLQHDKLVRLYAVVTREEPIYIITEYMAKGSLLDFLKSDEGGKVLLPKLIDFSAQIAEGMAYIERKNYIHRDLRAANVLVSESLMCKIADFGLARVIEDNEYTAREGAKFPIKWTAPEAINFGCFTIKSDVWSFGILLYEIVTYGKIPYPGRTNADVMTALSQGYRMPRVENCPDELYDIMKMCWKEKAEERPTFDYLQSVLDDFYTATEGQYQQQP
Serine/threonine-protein kinase 38-like (Homo sapiens), sequence (Q9Y2H1 2-464 limits assumed): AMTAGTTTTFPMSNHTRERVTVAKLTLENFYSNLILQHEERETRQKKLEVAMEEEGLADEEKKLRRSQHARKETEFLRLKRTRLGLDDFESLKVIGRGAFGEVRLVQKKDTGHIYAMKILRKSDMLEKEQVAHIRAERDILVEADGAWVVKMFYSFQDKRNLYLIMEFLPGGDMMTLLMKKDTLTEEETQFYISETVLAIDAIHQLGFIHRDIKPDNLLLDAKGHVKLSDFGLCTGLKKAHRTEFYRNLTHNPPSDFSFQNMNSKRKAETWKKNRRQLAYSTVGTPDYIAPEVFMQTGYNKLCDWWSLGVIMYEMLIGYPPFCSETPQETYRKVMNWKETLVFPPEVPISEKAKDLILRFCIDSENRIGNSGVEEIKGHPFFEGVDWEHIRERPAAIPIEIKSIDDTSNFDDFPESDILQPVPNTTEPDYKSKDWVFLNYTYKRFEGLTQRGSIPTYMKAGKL
Ribosomal protein S6 kinase alpha-3, sequence (P51812 whole entry): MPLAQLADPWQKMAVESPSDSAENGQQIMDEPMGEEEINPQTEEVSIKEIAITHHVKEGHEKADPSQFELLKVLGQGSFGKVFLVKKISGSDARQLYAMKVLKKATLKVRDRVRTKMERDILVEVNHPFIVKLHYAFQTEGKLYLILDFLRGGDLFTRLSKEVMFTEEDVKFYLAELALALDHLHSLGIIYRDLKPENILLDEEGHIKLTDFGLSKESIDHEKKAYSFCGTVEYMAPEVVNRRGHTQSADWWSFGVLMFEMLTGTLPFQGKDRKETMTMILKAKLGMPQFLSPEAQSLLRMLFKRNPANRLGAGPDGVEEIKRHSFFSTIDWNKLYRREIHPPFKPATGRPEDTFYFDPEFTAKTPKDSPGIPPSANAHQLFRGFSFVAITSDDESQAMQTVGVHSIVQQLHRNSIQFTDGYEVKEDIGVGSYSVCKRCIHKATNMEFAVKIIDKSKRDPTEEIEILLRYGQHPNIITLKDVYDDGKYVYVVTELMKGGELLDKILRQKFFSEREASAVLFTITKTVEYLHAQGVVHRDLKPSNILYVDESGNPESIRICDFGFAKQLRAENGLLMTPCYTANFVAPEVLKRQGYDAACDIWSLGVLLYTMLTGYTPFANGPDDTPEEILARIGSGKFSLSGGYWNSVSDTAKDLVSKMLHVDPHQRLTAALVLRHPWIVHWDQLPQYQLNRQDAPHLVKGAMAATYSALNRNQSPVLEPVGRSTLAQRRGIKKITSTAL

As for `Cc1cc([C@@H](C)Nc2ccccc2C(=O)O)c2nc(N3CCOCC3)cc(=O)n2c1` [AZD-6482], in assay [1], the % of control came out at 99%. `CC(C)(O)[C@H](F)CN1Cc2cc(NC(=O)c3cnn4cccnc34)c(N3CCOCC3)cc2C1=O`: the dTM in assay [2] was determined as 0.2 K. In the case of `CN(C)C/C=C/C(=O)Nc1ccc(C(=O)N2CCCC(Nc3ncc(Cl)c(-c4c[nH]c5ccccc45)n3)C2)cc1` (centres undefined), the % of control in assay [3] was determined as 84%. Molecule `Nc1cnc(N2CCc3cc(S(=O)(=O)Nc4c(F)cc(Cl)cc4F)cc(N4CCCC4=O)c32)nc1` [TP-020n] came in with a % of control in [4] of 42%. As to `CC[C@@H]1[C@H](F)C(=O)N[C@@H]1COc1nccc2cc(C(N)=O)c(OC)cc12` [ZIMLOVISERTIB], the % of inhibition is 5.62% in assay [5], 14.5% in [6] and -6.4% in assay [7]. Take `N#Cc1cccc(-c2c[nH]c3ncnc(N4CCOCC4)c23)c1`: the % of control in assay [8] was found to be 100%. The % of inhibition in [9] was -16%.
